From patent US8754079B2, “Cycloalkyl containing thienopyrimidines for pharmaceutical compositions” (Boehringer Ingelheim International GmbH, priority 2010, dated 2014)

molecular target: T1, MNK2 (Homo sapiens, UniProt Q9HBH9); assay: Mnk2a in vitro kinase assay (indirect fluorescence polarization); type: biochemical; details: pre-activated GST-Mnk2a 2.5 nM, 20 μM ATP, 30 μM substrate peptide
T1 construct: the open reading frames of human Mnk1 and Mnk2a were amplified from cDNA; made in house; host or cells: E. coli BL21
In short: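 Human GST-Mnk2a was expressed in E. coli and activated in vitro with 150 nM pre-activated ERK2 and 50 μM ATP in HEPES pH 7.4/MgCl2 buffer (45 min, 30 °C). Activity on an eIF4E Ser209-derived 12mer peptide was read by competitive fluorescence polarization with a phospho-specific antibody.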

T1 sequence (Q9HBH9 whole entry): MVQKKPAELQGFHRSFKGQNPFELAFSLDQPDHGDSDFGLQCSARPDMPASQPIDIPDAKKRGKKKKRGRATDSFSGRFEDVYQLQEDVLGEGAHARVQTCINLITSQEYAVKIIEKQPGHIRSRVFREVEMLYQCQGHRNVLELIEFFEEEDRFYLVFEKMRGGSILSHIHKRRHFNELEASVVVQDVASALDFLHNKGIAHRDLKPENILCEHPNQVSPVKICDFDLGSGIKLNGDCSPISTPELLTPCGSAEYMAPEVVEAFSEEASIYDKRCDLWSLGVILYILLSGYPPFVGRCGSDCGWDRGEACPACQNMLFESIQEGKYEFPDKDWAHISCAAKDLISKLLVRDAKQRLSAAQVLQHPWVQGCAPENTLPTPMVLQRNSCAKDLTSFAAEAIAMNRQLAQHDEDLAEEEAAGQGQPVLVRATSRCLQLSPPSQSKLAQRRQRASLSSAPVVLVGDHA

| SMILES | IC50 [nM] |
| --- | --- |
| CO[C@H]1CCC[C@@H](Oc2ncccc2Nc2ncnc3sc(C(=O)NCCN4CCCCC4)c(C)c23)C1 (racemic) [Example 124] | 36 |
| CNC(=O)CNC(=O)c1sc2ncnc(Nc3cccnc3O[C@@H]3CCC[C@@H](OC)C3)c2c1C (racemic) [Example 137] | 105 |
| COC(=O)[C@H](CO)NC(=O)c1sc2ncnc(Nc3ccc(F)cc3O[C@H]3CC[C@H](OC)CC3)c2c1C (relative stereo) [Example 272, 2-({-4-[4-Fluoro-2-(trans-4-methoxy-cyclohexyloxy)-phenylamino]-5-methyl-thieno[2,3-d]pyrimidine-6-carbonyl}-amino)-3-hydroxy-propionic acid methyl ester] | 33 |
| COC1CCCC(Oc2cc(F)ccc2Nc2ncnc3sc(C(=O)NCC#CCN(C)C)c(C)c23)C1 (centres unmarked) [Example 96] | 14 |
| CO[C@H]1CC[C@H](Oc2cc(F)ccc2Nc2ncnc3sc(C(=O)NCC4COCCN4)c(C)c23)CC1 (some centres unmarked) [Example 179] | 30 |
| COC1CCCC(Oc2cc(F)ccc2Nc2ncnc3sc(C(=O)NC4CCN(C)CC4)c(C)c23)C1 (centres unmarked) [Example 102] | 34 |
| CO[C@H]1CC[C@H](Oc2cc(F)ccc2Nc2ncnc3sc(C(=O)NCC#CCN(C)C)c(C)c23)CC1 [Example 187] | 21 |

Results, then the compound that gave them:

| IC50 [nM] | SMILES |
| --- | --- |
| 22 | Cc1c(C(=O)NCCCO)sc2ncnc(Nc3ccc(F)cc3O[C@@H]3CCC[C@@H](O)C3)c12 (racemic) [Example 74] |
| 7 | Cc1c(C(N)=O)sc2ncnc(Nc3ccc(F)cc3O[C@@H]3CCC[C@H](O)C3)c12 (racemic) [Example 57, Racemic 4-[4-Fluoro-2-((cis)-3-hydroxy-cyclohexyloxy)-phenylamino]-5-methyl-thieno[2,3-d]pyrimidine-6-carboxylic acid amide] |
| 10 | Cc1c(C(N)=O)sc2ncnc(Nc3cccnc3O[C@H]3CC[C@@H](O)CC3)c12 [Example 205, 4-[2-(cis-4-Hydroxy-cyclohexyloxy)-pyridin-3-ylamino]-5-methyl-thieno[2,3-d]pyrimidine-6-carboxylic acid amide] |
| 13 | Cc1c(C(N)=O)sc2ncnc(Nc3ccc(F)cc3O[C@H]3CCCC[C@@H]3O)c12 [Example 51, 4-[4-Fluoro-2-((1S,2S)-2-hydroxy-cyclohexyloxy)-phenylamino]-5-methyl-thieno[2,3-d]pyrimidine-6-carboxylic acid amide] |
| 18 | CO[C@@H]1CCCC[C@H]1Oc1cc(F)ccc1Nc1ncnc2sc(C(=O)NCCSC)c(C)c12 [Example 252] |
| 377 | Cc1c(C(N)=O)sc2ncnc(Nc3ccc(F)cc3O[C@H]3CCC[C@@H]3NC(=O)C3CC3)c12 [Example 293, (1S,2S) 4-{2-[2-(Cyclopropanecarbonyl-amino)-cyclopentyloxy]-4-fluoro-phenylamino}-5-methyl thieno[2,3-d]pyrimidine-6-carboxylic acid amide] |
| 360 | CO[C@H]1CCCC[C@@H]1Oc1cc(F)ccc1Nc1ncnc2sc(C(=O)NCCCN(C)C)c(C)c12 [Example 43, 4-[4-Fluoro-2-((1S,2S)-2-methoxy-cyclohexyloxy)-phenylamino]-5-methyl-thieno[2,3-d]pyrimidine-6-carboxylic acid (3-dimethylamino-propyl)-amide] |
| 62 | COCCNC(=O)c1sc2ncnc(Nc3ccc(F)cc3O[C@H]3CC[C@@H](OC)CC3)c2c1C [Example 203] |
| 19 | Cc1c(C(=O)NCCN2CCCCC2)sc2ncnc(Nc3ccc(F)cc3O[C@H]3CC[C@H](O)CC3)c12 [Example 170] |
| 8 | Cc1c(C(=O)O)sc2ncnc(Nc3ccc(F)cc3O[C@H]3C[C@@H]4OCO[C@@H]4C3)c12 [Example 290, 4-[4-Fluoro-2-(tetrahydro-cyclopenta[1,3]dioxol-5-yloxy)phenylamino]-5-methyl-thieno[2,3-d]pyrimidine-6-carboxylic acid] |
